Earlier results as cited in patent US20040229855A1, “Antiglucocorticoids for the treatment of postpartum psychosis” (Corcept Therapeutics, Inc., priority 2003, published 2004).

Assays:
[1] = in one study (Kawai 1989); cited from earlier work
glucocorticoid receptor = biological target: T1, glucocorticoid receptor (Homo sapiens, UniProt P04150); conditions: cited from earlier work
T1 sequence (P04150 1-777): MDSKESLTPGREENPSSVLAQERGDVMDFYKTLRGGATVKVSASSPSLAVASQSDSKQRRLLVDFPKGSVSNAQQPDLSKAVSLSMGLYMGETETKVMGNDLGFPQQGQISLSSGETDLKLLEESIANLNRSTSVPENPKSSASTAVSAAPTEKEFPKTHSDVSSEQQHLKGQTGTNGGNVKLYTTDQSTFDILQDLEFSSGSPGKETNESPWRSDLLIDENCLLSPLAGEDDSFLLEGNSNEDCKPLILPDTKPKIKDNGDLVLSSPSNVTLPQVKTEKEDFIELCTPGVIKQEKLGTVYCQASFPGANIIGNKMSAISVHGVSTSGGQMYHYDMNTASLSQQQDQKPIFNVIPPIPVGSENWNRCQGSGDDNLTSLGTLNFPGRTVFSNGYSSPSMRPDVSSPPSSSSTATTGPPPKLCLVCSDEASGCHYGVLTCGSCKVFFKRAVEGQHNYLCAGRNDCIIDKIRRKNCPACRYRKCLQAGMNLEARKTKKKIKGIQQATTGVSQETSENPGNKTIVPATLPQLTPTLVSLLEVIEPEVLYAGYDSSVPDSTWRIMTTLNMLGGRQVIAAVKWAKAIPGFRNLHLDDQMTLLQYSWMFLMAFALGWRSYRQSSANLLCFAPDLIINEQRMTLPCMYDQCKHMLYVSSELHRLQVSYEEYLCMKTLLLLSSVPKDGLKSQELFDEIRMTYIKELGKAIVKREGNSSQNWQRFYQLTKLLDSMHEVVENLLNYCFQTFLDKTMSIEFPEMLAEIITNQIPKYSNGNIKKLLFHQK

progesterone receptor = biological target: T2, progesterone receptor (Homo sapiens, UniProt P06401); conditions: cited from earlier work
T2 sequence (P06401 1-933): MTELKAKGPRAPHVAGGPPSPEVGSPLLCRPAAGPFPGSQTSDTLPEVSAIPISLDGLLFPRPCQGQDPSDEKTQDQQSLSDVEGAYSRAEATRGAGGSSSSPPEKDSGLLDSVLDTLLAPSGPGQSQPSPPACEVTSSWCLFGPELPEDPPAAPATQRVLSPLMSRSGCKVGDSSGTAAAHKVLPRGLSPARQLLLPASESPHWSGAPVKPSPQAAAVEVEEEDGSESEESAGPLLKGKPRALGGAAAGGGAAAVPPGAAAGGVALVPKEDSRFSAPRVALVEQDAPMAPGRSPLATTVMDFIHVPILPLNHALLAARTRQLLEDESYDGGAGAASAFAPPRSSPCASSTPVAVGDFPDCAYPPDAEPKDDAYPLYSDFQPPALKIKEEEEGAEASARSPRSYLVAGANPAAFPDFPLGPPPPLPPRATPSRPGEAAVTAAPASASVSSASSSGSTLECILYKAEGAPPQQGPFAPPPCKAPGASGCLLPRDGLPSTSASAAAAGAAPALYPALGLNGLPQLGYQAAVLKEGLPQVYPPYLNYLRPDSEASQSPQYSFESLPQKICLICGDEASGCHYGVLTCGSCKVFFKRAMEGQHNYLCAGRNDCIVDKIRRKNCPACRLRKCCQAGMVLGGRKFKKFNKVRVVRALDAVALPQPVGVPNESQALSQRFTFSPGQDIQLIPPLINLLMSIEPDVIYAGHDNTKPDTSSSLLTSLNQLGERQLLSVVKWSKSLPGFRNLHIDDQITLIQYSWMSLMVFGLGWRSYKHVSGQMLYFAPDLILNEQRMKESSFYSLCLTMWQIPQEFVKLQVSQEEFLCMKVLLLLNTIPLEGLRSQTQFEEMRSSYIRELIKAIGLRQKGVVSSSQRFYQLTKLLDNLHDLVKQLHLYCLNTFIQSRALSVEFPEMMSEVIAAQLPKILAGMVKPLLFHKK

Row | Structure (SMILES) | daily dose excreted in the urine [1] | glucocorticoid receptor antagonist activity (glucocorticoid receptor) | progesterone receptor antagonist activity (progesterone receptor)
1 | CC#C[C@]1(O)CC[C@H]2[C@@H]3CCC4=CC(=O)CCC4=C3[C@@H](c3ccc(N(C)C)cc3)C[C@@]21C [mifepristone, 17-β-hydroxy-11-β-(4-dimethyl-aminophenyl)-17-α-(1-propynyl)-estra-4,9-dien-3-one] | less than 0.5% | powerful antagonist | powerful antagonist
2 | CC#C[C@]1(O)CC[C@H]2[C@@H]3CCC4=CC(=O)CCC4=C3[C@@H](c3ccc(OCCN(C)C)cc3)C[C@@]21C [RU009, 11β-(4-dimethylaminoethoxyphenyl)-17α-propynyl-17β-hydroxy-4,9 estradien-3-one] |  | glucocorticoid receptor antagonist effects | 
